Assay results reported in patent US20230175033A1, “PRODUCTION OF JASMONATES IN FILAMENTOUS FUNGI” (Sumitomo Chemical Company, Limited, priority 2020, published 2023).
Read-outs that look alike come from different tables or passages of the source.

Legend:
[1] = tested on: Lasiodiplodia iranensis DWH-2; test: JA production by Lasiodiplodia iranensis cultures under shaking conditions, JA content by HPLC; format: cell-based
[2] = tested on: Lasiodiplodia iranensis DWH-2; test: Morphology of Lasiodiplodia iranensis cultures under shaking conditions; format: cell-based; details: shaking 250 rpm, 30° C.
[3] = shaker 250 rpm, 30° C., eight days, 200 mg/L IAA and sodium butyrate, 100 mg/L SA and ASA, 10 mg/L VA, 2 mM H2O2

Q: How did the “Titer (mg/L), production of JA with a jasmonate production elicitor” value (“Titer (mg/L), production of JA” below) [1, 3] turn out when CC(=O)Oc1ccccc1C(=O)O [ASA, acetylsalicylic acid] was run?
A: Its value is 100 mg/L.

Q: How did the “Titer (mg/L), production of JA” value [1, 3] turn out when OO [H2O2, hydrogen peroxide] was run?
A: The value was 160 mg/L.

Q: How did the “Titer (mg/L), production of JA” value [1, 3] turn out when O=C([O-])Cc1c[nH]c2ccccc12.[Na+] [IAA, Indole-3-acetic acid sodium salt] was run?
A: Its value is 400 mg/L.

Q: With O=C([O-])c1ccccc1O.[Na+] [SA, salicylic acid sodium salt] as the compound, how does the “Titer (mg/L), production of JA” value [1] read?
A: The value was 150 mg/L.

Q: For CCCC(=O)[O-].[Na+] [Sodium butyrate, sodium butyrate], which “Titer (mg/L), production of JA” value [1] is on record?
A: Its value is 175 mg/L.

Q: How did the “Titer (mg/L), production of JA” value [1, 3] turn out when CCCC(CCC)C(=O)[O-].[Na+] [VA, valproic acid sodium salt] was run?
A: Its value is 350 mg/L.

Q: For CC(C)=CCCC(C)=CCCC(C)=CCO [farnesol], which “effect on fungal morphology” value ([2]; 100 mg/L farnesol, nine days) is on record?
A: The value was “induced mycelial aggregation”.

Q: Which “effect on fungal morphology” value ([2]; 100 mg/L tyrosol, seven days) does the source give for OCCc1ccc(O)cc1 [tyrosol] here?
A: Its value is “induced mycelial aggregation”.
